Test results published in patent US20220054658A1, “CONJUGATES” (Transfection Holdings Limited, priority 2018, published 2022).
“Also recorded” adds a separate entry of the source.

What was measured:
[1] = system: M. tuberculosis strain H37Rv; experiment: Uptake test in M. tuberculosis; assay type: cell-based, Mycobacterium tuberculosis; conditions: 50 μg/mL (~80 μM), room temperature, 45 min
[2] = system: gastrointestinal system (crop, midgut and rectum) of adult honey bees; experiment: Honey bee gut uptake test; parameters: species or system Apis mellifera; conditions: 100 μM, 33° C., 45 min
Method: Honey bee (A. mellifera) hives were obtained and allowed to feed ab libitum spring to autumn. During the winter period, pollen mixed with 50% (v/v) sucrose was added to the honey bee hives in order to provide sufficient food. Honey bees were dissected and gastrointestinal system was removed including the crop, midgut and rectum, and added immediately to 500 μL of the delivery vehicle to be tested sample diluted with PBS at 100 μM final concentration or DMSO (0.1%) control. The mixture was incubated for 45 min at 33° C.
The gastrointestinal system (crop, midgut and rectum) of adult honey bees was extracted, and incubated with derivatives 1, 2, 8 and 11 at 100 μM and 33° C. for 45 min.

B. bovis Texas strain = experiment: Short-term uptake test in B. bovis infected RBCs (confocal microscopy); conditions: 25 μM, 37° C., 45 min, ~5% PPE
Method: The parasite culture was centrifuged and washed once with GIT medium. RBC's were pellet down, and 20 μl infected RBC mixture (10 μl packed infected RBC+10 μl GIT) was prepared. Then, 180 μl GIT medium with compound the compound to be evaluated (final concentration 25 μM for BODIPY derivatives and 100 μM for phiLOV derivatives) or DMSO (0.1%)/PBS control was added. The samples were incubated for 45 min at 37° C. (Samples were stained 1 μg/mL diluted Hoechst 33342 in GIT medium). After incubation, the samples were centrifuged and the pellet was washed with GIT medium (3×). A final solution of 50% haematocrit infected RBC mixture was transferred to slides to be observed by confocal laser microscopy (Nikon A1).
Uptake experiments were performed by incubating the parasite (˜5% Parasitized Erythrocytes (PPE)) with each derivative at 25 μM and 37° C. for 45 min. After incubation, the fluorescence intensities were calculated from confocal microscope images.
The phiLOV double mutant (R475G, K476C) was used to generate derivatives P11, P1, P8, and P3 which were tested for uptake in B. bovis Texas strain using phiLOV as a control. The derivatives and the control were incubated at 100 μM and 37° C. for 45 min. After incubation, the samples were analysed under confocal microscopy using Hoeschst 33342 (Thermofisher) as co-stain.

L. passim strain PRA-403 = experiment: Lotmaria passim parasite uptake test; assay type: cell-based; conditions: 1 μM, room temperature, 45 min, microplate reader
C. elegans = experiment: Conjugate uptake in C. elegans (dye and praziquantel conjugates, fluorescence microscopy); assay type: in vivo, Caenorhabditis elegans
In short: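 Worms in M9 buffer were exposed to 50 μM compound from a DMSO stock at room temperature in the dark for 3 h. Other samples were incubated overnight at 20 °C with OP50, and praziquantel conjugates were also read at 24 and 72 h. Worms were washed, immobilised with sodium azide on agarose and imaged by fluorescence microscopy.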

## CC1=CC(C)=[N+]2C1=Cc1ccc(CCCn3cc(CCNC(=O)/C=C/NC(=O)[C@@H]4OC(C)(C)OCC4(C)C)nn3)n1[B-]2(F)F [Compound 1, (R,E)-N-((((3-[4,4-Difluoro-5,7-dimethyl-4-bora-3a,4a-diaza-s-indacene-3-yl]propyl)-1H-1,2,3-triazol-4-yl)ethylamino)-3-oxoprop-1-enyl)-2,2,5,5-tetramethyl-1,3-dioxane-4-carboxamide]
[1]
  uptake in M. tuberculosis (fluorescence intensity / microscopy): preferred over their S counterparts; also recorded: highest fluorescence signals
[2]
  fluorescence in honey bee gut (crop, midgut, rectum): high fluorescence in the midgut and rectum, but not the crop
B. bovis Texas strain
  uptake in RBCs infected with B. bovis (fluorescence intensity from confocal images): highest uptake
L. passim strain PRA-403
  fluorescence relative to derivative 2: approximately % of the fluorescence of derivative 2
C. elegans; 50 μM, 3 h incubation
  uptake compared to other compounds: largest uptake observed compared to compounds 2 to 8
  uptake: location of fluorescence in C. elegans: observed in the pharynx, gut lumen and gut cells of both adults and larval stages
C. elegans; 50 μM, 20 h / overnight incubation
  uptake: location of fluorescence in C. elegans: strong fluorescence was localised in the pharynx, gut lumen and gut cells of both adults and larvae
C. elegans; FIG. 2(h), fluorescence microscopy
  distribution in C. elegans: distributed throughout the nematode
